Reference: the NIST ThermoML archive (doi:10.1016/j.jct.2011.08.016)

Assay: xn = mol fraction of the nth substance listed
Details: Liquid, Vibrating tube method

CCCCCCCCCC [decane] + CCCCCCC
Details | mass density [kg/m3]
333.12 K, 4000 kPa, x2 = 0.0531 | 701.18
333.12 K, 4000 kPa, x2 = 0.777 | 668.42
333.12 K, 5000 kPa, x2 = 0.0531 | 702.16
333.12 K, 5000 kPa, x2 = 0.777 | 669.49
333.12 K, 6000 kPa, x2 = 0.0531 | 703.1
333.12 K, 6000 kPa, x2 = 0.777 | 670.55
333.12 K, 7000 kPa, x2 = 0.0531 | 704.05
333.12 K, 7000 kPa, x2 = 0.777 | 671.62
333.12 K, 8000 kPa, x2 = 0.0531 | 704.99
333.12 K, 8000 kPa, x2 = 0.777 | 672.68
333.12 K, 9000 kPa, x2 = 0.0531 | 705.9
333.12 K, 9000 kPa, x2 = 0.777 | 673.73
333.12 K, 10000 kPa, x2 = 0.0531 | 706.8
333.12 K, 10000 kPa, x2 = 0.777 | 674.77
333.12 K, 10990 kPa, x2 = 0.0531 | 707.69
333.12 K, 10990 kPa, x2 = 0.777 | 675.8
333.12 K, 12000 kPa, x2 = 0.0531 | 708.56
333.12 K, 12000 kPa, x2 = 0.777 | 676.81
333.12 K, 13000 kPa, x2 = 0.0531 | 709.43
333.12 K, 13000 kPa, x2 = 0.777 | 677.81
333.12 K, 14000 kPa, x2 = 0.0531 | 710.28
333.12 K, 14000 kPa, x2 = 0.777 | 678.79
333.12 K, 15000 kPa, x2 = 0.0531 | 711.14
333.12 K, 15000 kPa, x2 = 0.777 | 679.76
333.12 K, 16000 kPa, x2 = 0.0531 | 711.96
333.12 K, 16000 kPa, x2 = 0.777 | 680.71
333.12 K, 17000 kPa, x2 = 0.0531 | 712.79
333.12 K, 17000 kPa, x2 = 0.777 | 681.65
333.12 K, 18000 kPa, x2 = 0.0531 | 713.6
333.12 K, 18000 kPa, x2 = 0.777 | 682.58
333.12 K, 19000 kPa, x2 = 0.0531 | 714.39
333.12 K, 19000 kPa, x2 = 0.777 | 683.49
333.12 K, 20000 kPa, x2 = 0.0531 | 715.18
333.12 K, 20000 kPa, x2 = 0.777 | 684.39
333.12 K, 21000 kPa, x2 = 0.0531 | 715.96
333.12 K, 21000 kPa, x2 = 0.777 | 685.27
333.12 K, 22000 kPa, x2 = 0.0531 | 716.72
333.12 K, 22000 kPa, x2 = 0.777 | 686.1
333.12 K, 23000 kPa, x2 = 0.0531 | 717.46
333.12 K, 23000 kPa, x2 = 0.777 | 686.9
333.12 K, 24000 kPa, x2 = 0.0531 | 718.21
333.12 K, 24000 kPa, x2 = 0.777 | 687.68
333.12 K, 25000 kPa, x2 = 0.0531 | 718.95
333.12 K, 25000 kPa, x2 = 0.777 | 688.47
333.13 K, 1000 kPa, x2 = 0.952 | 653.95
333.13 K, 2000 kPa, x2 = 0.952 | 655.14
333.13 K, 3000 kPa, x2 = 0.952 | 656.33
333.13 K, 4000 kPa, x2 = 0.952 | 657.51
333.13 K, 5000 kPa, x2 = 0.952 | 658.67
333.13 K, 6000 kPa, x2 = 0.952 | 659.82
333.13 K, 7000 kPa, x2 = 0.952 | 660.95
333.13 K, 8000 kPa, x2 = 0.952 | 662.06
333.13 K, 9000 kPa, x2 = 0.952 | 663.16
333.13 K, 10000 kPa, x2 = 0.952 | 664.24
333.13 K, 10990 kPa, x2 = 0.952 | 665.3
333.13 K, 12000 kPa, x2 = 0.952 | 666.34
333.13 K, 13000 kPa, x2 = 0.952 | 667.37
333.13 K, 14000 kPa, x2 = 0.952 | 668.38
333.13 K, 15000 kPa, x2 = 0.952 | 669.39
333.13 K, 16000 kPa, x2 = 0.952 | 670.37
333.13 K, 17000 kPa, x2 = 0.952 | 671.33
333.13 K, 18000 kPa, x2 = 0.952 | 672.29
333.13 K, 19000 kPa, x2 = 0.952 | 673.23
333.13 K, 20000 kPa, x2 = 0.952 | 674.14
333.13 K, 21000 kPa, x2 = 0.952 | 675.04
333.13 K, 22000 kPa, x2 = 0.952 | 675.93
333.13 K, 23000 kPa, x2 = 0.952 | 676.79
333.13 K, 24000 kPa, x2 = 0.952 | 677.64
333.13 K, 25000 kPa, x2 = 0.952 | 678.45
333.14 K, 1000 kPa, x2 = 0.2594 | 690.74
333.14 K, 2000 kPa, x2 = 0.2594 | 691.66
333.14 K, 3000 kPa, x2 = 0.2594 | 692.62
333.14 K, 4000 kPa, x2 = 0.2594 | 693.57
333.14 K, 5000 kPa, x2 = 0.2594 | 694.49
333.14 K, 6000 kPa, x2 = 0.2594 | 695.43
333.14 K, 7000 kPa, x2 = 0.2594 | 696.4
333.14 K, 8000 kPa, x2 = 0.2594 | 697.34
333.14 K, 9000 kPa, x2 = 0.2594 | 698.3
333.14 K, 10000 kPa, x2 = 0.2594 | 699.23
333.14 K, 10990 kPa, x2 = 0.2594 | 700.16
333.14 K, 12000 kPa, x2 = 0.2594 | 701.08
333.14 K, 13000 kPa, x2 = 0.2594 | 701.98
333.14 K, 14000 kPa, x2 = 0.2594 | 702.87
333.14 K, 15000 kPa, x2 = 0.2594 | 703.75
333.14 K, 16000 kPa, x2 = 0.2594 | 704.61
333.14 K, 17000 kPa, x2 = 0.2594 | 705.47
333.14 K, 18000 kPa, x2 = 0.2594 | 706.33
333.14 K, 19000 kPa, x2 = 0.2594 | 707.13
333.14 K, 20000 kPa, x2 = 0.2594 | 707.94
333.14 K, 21000 kPa, x2 = 0.2594 | 708.75
333.14 K, 22000 kPa, x2 = 0.2594 | 709.53
333.14 K, 23000 kPa, x2 = 0.2594 | 710.3
333.14 K, 24000 kPa, x2 = 0.2594 | 711.03
333.14 K, 25000 kPa, x2 = 0.2594 | 711.74
